What was measured:
NCI-H929 = assay: Cytotoxicity of steroid treated AB-101 cells against NCI-H929; assay type: cell-based; details: 48 hours; particularly when combined with 500 IU/mL of IL-2; 5:1 E:T
Daudi = assay: Cytotoxicity of steroid treated AB-101 cells against Daudi; assay type: cell-based; details: 48 hours; particularly when combined with 500 IU/mL of IL-2; 5:1 E:T
K562 = assay: Cytotoxicity of steroid treated AB-101 cells against K562; assay type: cell-based; details: 5:1 E:T
[1] = system: K562, Daudi, RPMI-8226, and NCI-H929; assay: Impact of steroids on AB-101+daratumumab ADCC; details: 48 hours steroid treatment; 5:1 E:T; with daratumumab
CD38− cell line K562 = assay: Daratumumab titration, cytotoxicity of AB-101 cells against K562; assay type: cell-based; details: AB-101 at 5:1 E:T, 4 hours
Experimental: (§1) After 4 hours on co-culture, the samples were analyzed by flow cytometry.

[2] = system: Burkitt's lymphoma cell line Daudi; assay: Complement fixation assay (CDC), assay control tumor line; assay type: cell-based; details: human complement serum; lowest concentration tested
From the text: Burkitt's lymphoma cell line Daudi was included as an assay control.

[3] = system: CD38+ multiple myeloma cell line MM.1S; assay: Daratumumab titration, ADCC by AB-101 cells against MM.1S; assay type: cell-based; details: AB-101 at 5:1 E:T, 4 hours
Experimental: as §1

| Compound | basal cytotoxicity of steroid treated AB-101 cells (NCI-H929) | basal cytotoxicity of steroid treated AB-101 cells (Daudi) | basal cytotoxicity of steroid treated AB-101 cells (K562; 0.1, 1, 10 μM for 48 hours, all concentrations tested, with the exception of one cell lot) | cytotoxicity of steroid treated AB-101 cells with 500 IU/ml of IL-2 (K562; 500 IU/ml IL-2 during steroid treatment) | ADCC potential of steroid treated AB-101 cells [1] | cytotoxicity of AB-101 cells, daratumumab vs IgG control (CD38− cell line K562) | concentration of daratumumab at which lysis reached saturation [2] [µg/mL] | ADCC compared to IgG1 control antibodies [3] |
| --- | --- | --- | --- | --- | --- | --- | --- | --- |
| C[C@@H]1C[C@H]2[C@@H]3CCC4=CC(=O)C=C[C@]4(C)[C@@]3(F)[C@@H](O)C[C@]2(C)[C@@]1(O)C(=O)CO [Dexamethasone, (8S,9R,10S,11S,13S,14S,16R,17R)-9-fluoro-11,17-dihydroxy-17-(2-hydroxyacetyl)-10,13,16-trimethyl-6,7,8,11,12,14,15,16-octahydrocyclopenta[a]phenanthren-3-one] | enhanced | enhanced | reduced | restored cytotoxicity | did not abolish |  |  |  |
| daratumumab: mAb that targets CD38, approved for multiple myeloma |  |  |  |  |  | no change in cytotoxicity | ≤ 0.41 | elicited ADCC |

— patent US20240115704A1, “TREATMENT OF CANCER WITH NK CELLS AND A CD38-TARGETED ANTIBODY” (Artiva Biotherapeutics, Inc., priority 2021, published 2024)
